Source: ChEMBL document CHEMBL5634141 (Eur J Med Chem, 2023)
Active and inactive are the calls of the source. No cut-off for these calls is given here.

Key:
[1] = tested on: von Hippel-Lindau disease tumor suppressor/GTPase KRas (Homo sapiens), P01116+P40337 [G12C]; assay: PROTAC activity at VHL/KRAS G12C mutant in human NCI-H358 cells assessed as induction of protein degradation at 100 nM preincubated with MLN4924 for 6 hrs followed by compound addition and measured after 48 hrs by Western blotting analysis; type: cell-based
[2] = tested on: NCI-H358; assay: Antiproliferative activity against human NCI-H358 cells expressing KRAS G12C mutant assessed as relative cell viability at 30 nM incubated for 72 hrs in presence of selumetinib by CCK-8 assay; type: functional; conditions: read-out: Activity
[3] = tested on: von Hippel-Lindau disease tumor suppressor/GTPase KRas (Homo sapiens), P01116+P40337 [G12C]; assay: PROTAC activity at VHL/KRAS G12C mutant in human MIA PaCa-2 cells assessed as induction of protein degradation at 300 nM incubated for 24 hrs by Western blotting analysis relative to control; type: cell-based
[4] = tested on: NCI-H358; assay: Synergistic antiproliferative activity against human NCI-H358 cells expressing KRAS G12C mutant assessed as combination index at 30 nM incubated for 72 hrs in presence of infigratinib by CCK-8 assay; type: functional
[5] = Volume of distribution at steady state in ICR mouse at 2 mg/kg, iv measured after 24 hrs by LC-MS/MS analysis; type: ADME, organism-based; conditions: in vivo
[6] = Cmax in ICR mouse at 2 mg/kg, iv measured after 24 hrs by LC-MS/MS analysis; type: ADME, organism-based; conditions: in vivo
[7] = tested on: NCI-H358; assay: Induction of apoptosis in human NCI-H358 cells assessed as necrotic cells at 100 nM incubated for 48 hrs by Annexin V-FITC staining based flow cytometry analysis (reference value: 1.62 %); type: functional
[8] = tested on: von Hippel-Lindau disease tumor suppressor/GTPase KRas (Homo sapiens), P01116+P40337 [G12C]; assay: PROTAC activity at VHL/KRAS G12C mutant in human NCI-H358 cells assessed as induction of protein degradation at 100 nM incubated for 48 hrs followed by compound washout by Western blotting analysis; type: cell-based
[9] = tested on: von Hippel-Lindau disease tumor suppressor/GTPase KRas (Homo sapiens), P01116+P40337 [G12C]; assay: PROTAC activity at VHL/KRAS G12C mutant in human MIA PaCa-2 cells assessed as inhibition of ERK phosphorylation by Western blotting analysis; type: cell-based
[10] = tested on: MIA PaCa-2; assay: Antiproliferative activity against human MIA PaCa-2 cells expressing KRAS G12C mutant assessed as relative cell viability at 30 nM incubated for 72 hrs in presence of infigratinib by CCK-8 assay; type: functional; conditions: read-out: Activity
[11] = AUC (0 to t) in ICR mouse at 30 mg/kg, ip measured after 24 hrs by LC-MS/MS analysis; type: ADME, organism-based; conditions: in vivo
[12] = tested on: MIA PaCa-2; assay: Antiproliferative activity against human MIA PaCa-2 cells expressing KRAS G12C mutant assessed as relative cell viability at 30 nM incubated for 72 hrs in presence of daclolisib by CCK-8 assay; type: functional; conditions: read-out: Activity
[13] = tested on: von Hippel-Lindau disease tumor suppressor/GTPase KRas (Homo sapiens), P01116+P40337 [G12C]; assay: PROTAC activity at VHL/KRAS G12C mutant in human MIA PaCa-2 cells assessed as induction of protein degradation in presence of MLN4924 by Western blot analysis; type: cell-based
[14] = tested on: von Hippel-Lindau disease tumor suppressor/GTPase KRas (Homo sapiens), P01116+P40337 [G12C]; assay: PROTAC activity at VHL/KRAS G12C mutant in human NCI-H358 cells assessed as induction of protein degradation at 300 nM incubated for 6 hrs by Western blotting analysis relative to control; type: cell-based
[15] = Half life in ICR mouse at 2 mg/kg, iv measured after 24 hrs by LC-MS/MS analysis; type: ADME, organism-based; conditions: in vivo
[16] = tested on: MIA PaCa-2; assay: Antitumor activity against human MIA PaCa-2 cells xenografted in BALB/c nude mouse assessed as reduction in percentage of Ki67-positive cells at 10 to 30 mg/kg, ip administered for 16 days by immunohistochemical staining analysis; type: functional, organism-based; conditions: dose 10-30 mg/kg, time 16.0 day
[17] = tested on: von Hippel-Lindau disease tumor suppressor/GTPase KRas (Homo sapiens), P01116+P40337 [G12C]; assay: PROTAC activity at VHL/KRAS G12C mutant in human NCI-H358 cells assessed as induction of protein degradation at 300 nM incubated for 24 hrs by Western blotting analysis relative to control; type: cell-based
[18] = tested on: MIA PaCa-2; assay: Antitumor activity against human MIA PaCa-2 cells xenografted in BALB/c nude mouse assessed as reduction in percentage of CD31-positive cells at 10 to 30 mg/kg, ip administered for 16 days by immunohistochemical staining analysis; type: functional, organism-based; conditions: dose 10-30 mg/kg, time 16.0 day
[19] = tested on: Calu-1; assay: Antiproliferative activity against human Calu-1 cells expressing KRAS G12C mutant assessed as relative cell viability at 30 nM incubated for 72 hrs in presence of MK-2206 by CCK-8 assay; type: functional; conditions: read-out: Activity
[20] = tested on: MIA PaCa-2; assay: Inhibition of colony formation in human MIA PaCa-2 cells expressing KRAS G12C mutant assessed as reduction in cell number at 30 nM incubated for 14 days in presence of linsitinib by crystal violet staining based analysis; type: functional; conditions: time 14.0 day
[21] = AUC (0 to infinity) in ICR mouse at 2 mg/kg, iv measured after 24 hrs by LC-MS/MS analysis; type: ADME, organism-based; conditions: in vivo
[22] = tested on: MIA PaCa-2; assay: Antiproliferative activity against human MIA PaCa-2 cells expressing KRAS G12C mutant assessed as reduction of cell growth by measuring fold decrease in IC50 incubated for 72 hrs in presence of Linsitinib by CCK-8 assay; type: functional
[23] = tested on: NCI-H358; assay: Inhibition of colony formation in human NCI-H358 cells expressing KRAS G12C mutant assessed as reduction in cell number at 30 nM incubated for 14 days in presence of AZD4573 by crystal violet staining based analysis; type: functional; conditions: time 14.0 day
[24] = Tmax in ICR mouse at 30 mg/kg, ip measured after 24 hrs by LC-MS/MS analysis; type: ADME, organism-based; conditions: in vivo
[25] = tested on: MIA PaCa-2; assay: Antitumor activity against human MIA PaCa-2 cells xenografted in BALB/c nude mouse assessed as reduction in number of tumor foci at 10 to 30 mg/kg, ip administered for 16 days by hematoxylin and eosin staining based analysis; type: functional, organism-based; conditions: dose 10-30 mg/kg, time 16.0 day
[26] = tested on: von Hippel-Lindau disease tumor suppressor/GTPase KRas (Homo sapiens), P01116+P40337 [G12C]; assay: PROTAC activity at VHL/KRAS G12C mutant in human MIA PaCa-2 cells assessed as inhibition of Akt phosphorylation at 100 nM incubated for 1 to 8 days by Western blotting analysis; type: cell-based; conditions: time 1-8 day
[27] = tested on: MIA PaCa-2; assay: Antiproliferative activity against human MIA PaCa-2 cells expressing KRAS G12C mutant assessed as inhibition of cell growth at 100 nM incubated for 8 days by CCK-8 assay; type: functional, cell-based; conditions: time 8.0 day
[28] = tested on: SW837; assay: Antiproliferative activity against human SW837 cells expressing KRAS G12C mutant assessed as relative cell viability at 30 nM incubated for 72 hrs in presence of crizotinib by CCK-8 assay; type: functional; conditions: read-out: Activity
[29] = tested on: NCI-H23; assay: Antiproliferative activity against human NCI-H23 cells expressing KRAS G12C mutant assessed as relative cell viability at 30 nM incubated for 72 hrs in presence of naporafenib by CCK-8 assay; type: functional; conditions: read-out: Activity
[30] = tested on: MIA PaCa-2; assay: Induction of apoptosis in human MIA PaCa-2 cells assessed as late apoptotic cells at 300 nM incubated for 48 hrs by Annexin V-FITC staining based flow cytometry analysis (reference value: 5.69 %); type: functional
[31] = tested on: SW837; assay: Antiproliferative activity against human SW837 cells expressing KRAS G12C mutant assessed as relative cell viability at 30 nM incubated for 72 hrs in presence of MK-2206 by CCK-8 assay; type: functional; conditions: read-out: Activity
[32] = tested on: MIA PaCa-2; assay: Antiproliferative activity against human MIA PaCa-2 cells expressing KRAS G12C mutant assessed as relative cell viability at 30 nM incubated for 72 hrs in presence of MK-2206 by CCK-8 assay; type: functional; conditions: read-out: Activity

## C=CC(=O)N1CCN(c2nc(=O)n(-c3c(C)ccnc3C(C)C)c3nc(-c4c(F)cccc4OCC4CCN(CCCC(=O)N[C@H](C(=O)N5C[C@H](O)C[C@H]5C(=O)NCc5ccc(-c6scnc6C)cc5)C(C)(C)C)CC4)c(F)cc23)[C@@H](C)C1
[1]
  Activity: inactive
[2]
  viability at 0.03 µM: 0.31%
[3]
  Activity: 100%
[4]
  CI: <1
[5]
  Vdss: 2 L/kg
[6]
  Cmax: 1170 ng/mL
[7]
  Activity: 1.12%
[8]
  Activity: Active
[9]
  Activity: Dose-Dependent Effect
[10]
  viability at 0.03 µM: 0.35%
[11]
  AUC(0-t) at 24 h: 21000 ng·h/mL
[12]
  viability at 0.03 µM: 0.17%
[13]
  Activity: inactive
[14]
  Activity: 50%
[15]
  t1/2: 0.876 h
[16]
  Activity: Active
[17]
  Activity: 100%
[18]
  Activity: Active
[19]
  viability at 0.03 µM: 0.32%
[20]
  inhibition: Active
[21]
  AUC: 404 ng·h/mL
[22]
  fold change (FC): ~3
[23]
  inhibition: Active
[24]
  Tmax: 1.17 h
[25]
  Activity: Active
[26]
  Activity: Active
[27]
  Activity: Active
[28]
  viability at 0.03 µM: 0.36%
[29]
  viability at 0.03 µM: 0.34%
[30]
  Activity: 19.9%
[31]
  viability at 0.03 µM: 0.34%
[32]
  viability at 0.03 µM: 0.24%
